Measured values taken from patent US20210330611A1, “THERAPY FOR NEUROLOGICAL DISEASES/DISORDERS” (priority 2020, published 2021).
Where “and” joins values, the source holds several entries; their conditions need not be identical. Identical values can stand only once. Like-named read-outs stand apart in the source and are kept apart here.

Assays:
primary rat microglia [1] = conditions: rat
[2] = test system: fibrin- and LPS-induced microglia activation; assay: cells; type: cell-based, rat
primary rat microglia [3] = assay: Cell toxicity (dead cells, size <150 μm2) in coated fibrin (cFib) assay; conditions: for Fibrin % cell toxicity: primary microglia HTS;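 as to Fibrin % cell toxicity: share of dead cells sized under 150 µm2 at 10 µM in fibrin-stimulated microglia HTS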
[4] = test system: LPS-induced microglia activation; assay: Image-based assay of LPS-induced microglia activation (HTS and dose response); type: cell-based, rat; conditions: for inhibition at 10 µM: read-out: LPS % inhibition
[5] = test system: fibrin-induced microglia activation; assay: Image-based assay of fibrin-induced microglia activation (HTS and dose response); type: cell-based, rat; conditions: for inhibition at 10 µM: read-out: Fibrin % inhibition
[6] = quadrant by fibrin and LPS inhibition, HTS at 10 μM
[7] = fibrin assay, dead cells (size <150 μm2)
[8] = Rattus norvegicus, Microglia, primary microglia HTS, LPS stimulation, compounds at 10 μM
[9] = primary microglia HTS, LPS stimulation, compounds at 10 μM, 10 µM
[10] = classification by fibrin and LPS inhibition, HTS at 10 μM
[11] = fibrin assay, dead cells (size <150 μm2), compounds at 10 μM
[12] = quadrant by fibrin and LPS inhibition in HTS of 1907 compounds
[13] = classification by fibrin and LPS inhibition in HTS
[14] = Rattus norvegicus, Microglia, 48 h
[15] = fibrin stimulation, cell size <150 μm2 as marker of toxicity

## CC(C)NCC(O)COc1cccc2ccccc12 (centres unmarked) [1-(Isopropylamino)-3-(1-Naphthyloxy)-2-Propanol]
Primary rat microglia [1]
  LPS % cell toxicity: 0%

## C[C@@H]1[C@H](O)[C@@H](C)/C=C/C=C/C=C/C=C/C=C/C=C/C=C/[C@H](O[C@@H]2O[C@H](C)[C@@H](O)[C@H](N)[C@@H]2O)C[C@@H]2O[C@](O)(C[C@@H](O)C[C@@H](O)[C@H](O)CC[C@@H](O)C[C@@H](O)CC(=O)O[C@H]1C)C[C@H](O)[C@H]2C(=O)O [Amphotericin B]
[2]; [6]
  Quadrant (FIG. 5b): Q4
Primary rat microglia [3]; [7]
  Fibrin % cell toxicity: 1%

## O=C1CN2Cc3c(ccc(Cl)c3Cl)N=C2N1 [Anagrelide]
[2]; [6]
  Quadrant (FIG. 5b): Q4
Primary rat microglia [3]; [7]
  Fibrin % cell toxicity: 1%

## O=C1CCc2ccc(OCCCCN3CCN(c4cccc(Cl)c4Cl)CC3)cc2N1 [Aripiprazole]
Primary rat microglia [1]
  LPS % cell toxicity: 0%
[2]
  Quadrant (FIG. 5b): Q4

## CN(C)C(=O)Oc1cc(OC(=O)N(C)C)cc(C(O)CNC(C)(C)C)c1 (centres unmarked) [Bambuterol]
[2]; [6]
  Quadrant (FIG. 5b): Q4
[4]; [8]
  inhibition at 10 µM: 9%
[4]; [9]
  LPS % inhibition: 13%
Primary rat microglia [3]; [7]
  Fibrin % cell toxicity: 1%

## CC(C)NCC(O)COc1ccc(CCOCC2CC2)cc1 (centres unmarked) [Betaxolol]
Primary rat microglia [1]
  LPS % cell toxicity: 0%
[2]
  Quadrant (FIG. 5b): Q4

## Clc1ccc2c(c1)CCc1cccnc1C2=C1CCNCC1 [Desloratadine]
Primary rat microglia [1]
  LPS % cell toxicity: 0%
[2]
  Quadrant (FIG. 5b): Q4

## C[C@H]1O[C@@H](O[C@H]2[C@@H](O)C[C@H](O[C@H]3[C@@H](O)C[C@H](O[C@H]4CC[C@@]5(C)[C@H](CC[C@@H]6[C@@H]5CC[C@]5(C)[C@@H](C7=CC(=O)OC7)CC[C@]65O)C4)O[C@@H]3C)O[C@@H]2C)C[C@H](O)[C@@H]1O [Digitoxin]
[2]; [10]
  Quadrant (FIG. 5b): Q4
Primary rat microglia [3]; [11]
  Fibrin % cell toxicity: 1%

## CN1C[C@H](C(=O)N[C@]2(C)O[C@@]3(O)[C@@H]4CCCN4C(=O)[C@H](Cc4ccccc4)N3C2=O)C[C@@H]2c3cccc4[nH]cc(c34)C[C@H]21 [Dihydroergotamine]
[2]; [10]
  Quadrant (FIG. 5b): Q4
[4]; [8]
  inhibition at 10 µM: 39%
[4]; [9]
  LPS % inhibition: 22%
[5]; primary microglia HTS, fibrin stimulation, compounds at 10 μM, 10 µM
  Fibrin % inhibition: 7% and −3%
Primary rat microglia [3]; [11]
  Fibrin % cell toxicity: 1% and 0%

## CCN(CC)C(=O)/C(C#N)=C/c1cc(O)c(O)c([N+](=O)[O-])c1 [Entacapone]
[2]; [10]
  Quadrant (FIG. 5b): Q4
[4]; [8]
  inhibition at 10 µM: 11%
[4]; [9]
  LPS % inhibition: 17%
Primary rat microglia [3]; [11]
  Fibrin % cell toxicity: 1%

## COc1ccc2[nH]c([S+]([O-])Cc3ncc(C)c(OC)c3C)nc2c1 (centres unmarked) [Esomeprazole; Omeprazole]
[2]; [10]
  Quadrant (FIG. 5b): Q4
[4]; [9]
  LPS % inhibition: 24% and 13%
Primary rat microglia [3]; [11]
  Fibrin % cell toxicity: 0% and 1%

## C[C@]12CC[C@@H]3c4ccc(O)cc4CC[C@H]3[C@@H]1CC[C@@H]2O [Estradiol]
Primary rat microglia [1]
  LPS % cell toxicity: 0%
[2]; [10]
  Quadrant (FIG. 5b): Q4

## C#C[C@]1(OC(C)=O)CC[C@H]2[C@@H]3CCC4=C[C@@H](OC(C)=O)CC[C@@H]4[C@H]3CC[C@@]21C [Ethynodiol Diacetate]
[2]; [10]
  Quadrant (FIG. 5b): Q4
Primary rat microglia [3]; [11]
  Fibrin % cell toxicity: 1%

## CCC(=O)c1c(O)cc(O)cc1O [Flopropione]
[2]; [12]
  Quadrant (FIG. 5b): Q4
[4]; Rattus norvegicus, Microglia, 48 h, primary microglia HTS, LPS stimulation, activation = cell size >800 μm2
  inhibition at 10 µM: 10%
[5]; Rattus norvegicus, Microglia, primary microglia HTS, fibrin stimulation, activation = cell size >800 μm2
  inhibition at 10 µM: -35%
Primary rat microglia [3]; fibrin stimulation, toxicity = cell size <150 μm2
  Fibrin % cell toxicity: 1%

## COc1cc2ncnc(Nc3ccc(F)c(Cl)c3)c2cc1OCCCN1CCOCC1 [Gefitinib]
Primary rat microglia [1]
  LPS % cell toxicity: 0%
[2]
  Quadrant (FIG. 5b): Q4

## CCN(CC)C(=O)N[C@H]1C=C2c3cccc4[nH]cc(c34)C[C@H]2N(C)C1 [Lisuride]
Primary rat microglia [1]
  LPS % cell toxicity: 0%
[2]
  Quadrant (FIG. 5b): Q4

## O=C(O)C(O)C(O)C(=O)O.OCc1cccnc1 (centres unmarked) [Nicotinyl Alcohol Tartrate]
Primary rat microglia [1]
  LPS % cell toxicity: 0%
[2]; [12]
  Quadrant (FIG. 5b): Q4

## CC(N)C12CC3CC(CC(C3)C1)C2 (centres unmarked) [Rimantadine]
[2]; [13]
  Quadrant (FIG. 5b): Q4
[2]; [6]
  Quadrant (FIG. 5b): Q2
[4]; [14]
  inhibition at 10 µM: 2%
[4]; [8]
  inhibition at 10 µM: 106%
[5]; Rattus norvegicus, Microglia, primary microglia HTS, fibrin stimulation, cell size >800 μm2 as marker of activation
  inhibition at 10 µM: -19%
[5]; Rattus norvegicus, Microglia, primary microglia HTS, fibrin stimulation, compounds at 10 μM
  inhibition at 10 µM: 106%
Primary rat microglia [3]; [7]
  Fibrin % cell toxicity: 93%
Primary rat microglia [3]; [15]
  Fibrin % cell toxicity: 0%

## Cc1nc2n(c(=O)c1CCN1CCC(c3noc4cc(F)ccc34)CC1)CCCC2 [Risperidone]
Primary rat microglia [1]
  LPS % cell toxicity: 0%
[2]
  Quadrant (FIG. 5b): Q4

## C[C@@H]1CN(c2c(F)c(N)c3c(=O)c(C(=O)O)cn(C4CC4)c3c2F)C[C@H](C)N1 [Sparfloxacin]
[2]; [13]
  Quadrant (FIG. 5b): Q4
[4]; [14]
  inhibition at 10 µM: 11%
Primary rat microglia [3]; [15]
  Fibrin % cell toxicity: 0% and 1%

## Cc1ncc(C[n+]2csc(CCO)c2C)c(N)n1 [Thiamine]
Primary rat microglia [1]
  LPS % cell toxicity: 0%
[2]
  Quadrant (FIG. 5b): Q4

## CN(C)CCCN1c2ccccc2Sc2ccc(C(F)(F)F)cc21 [Triflupromazine]
Primary rat microglia [1]
  LPS % cell toxicity: 1%

## CC(C)=CCc1c2c(c3occ(-c4ccc(O)c(O)c4)c(=O)c3c1O)C=CC(C)(C)O2 [pomiferin]
[4]; Rattus norvegicus, Microglia, Table 7, read-out: LPS_IC50
  IC50: 0.123 µM
[5]; Rattus norvegicus, Microglia, Table 7, read-out: fib_IC50
  IC50: 0.251 µM
Primary rat microglia [3]; Rattus norvegicus, Microglia, read-out: dead_IC50 (uM), Table 7, fibrin or LPS assay not specified
  IC50: 3.45 µM

## Hexylene Glycol
[2]; [12]
  Quadrant (FIG. 5b): Q4
[4]; primary microglia HTS, LPS stimulation, activation = cell size >800 μm2
  LPS % inhibition: 12%
[5]; primary microglia HTS, fibrin stimulation, activation = cell size >800 μm2
  Fibrin % inhibition: −8%

## Hydrocortisone sodium phosphate [reference compound]
[2]
  Activity: fib/LPS
  Quadrant (FIG. 5b): Q2
[4]
  LPS specificity: 0.8
  LPS_HS: −0.69
[4]; read-out: LPS_IC50
  IC50: 0.161 µM
[5]
  fib specificity: 1.3
  fib_HS: −0.52
[5]; read-out: fib_IC50
  IC50: 0.128 µM

## Medroxyprogesterone [reference compound]
[2]; HTS of 1907 compounds, quadrant by fibrin and LPS inhibition
  Quadrant (FIG. 5b): Q3
[2]; Table 1, screen at 10 μM
  Quadrant (FIG. 5b): Q3
[2]; [12]
  Quadrant (FIG. 5b): Q3
[4]; LPS-induced microglia activation, dose response, read-out: LPS IC50 (uM) (Suppl. Table 7)
  IC50: 8 µM
[4]; Table 1, dose response 0.001-20 μM, triplicates, primary rat microglia, 48 h, read-out: LPS IC50
  IC50: 8 µM
[4]; dose response, LPS-induced microglia activation, read-out: LPS IC50
  IC50: 8 µM
[4]; primary microglia HTS, LPS stimulation, increased cell size (>800 μm^2) as marker of activation
  LPS % inhibition: 6%
[5]; Table 1, dose response 0.001-20 μM, triplicates, primary rat microglia, 48 h, read-out: Fibrin IC50
  IC50: > 20 µM
[5]; dose response, fibrin-induced microglia activation, read-out: Fibrin IC50
  IC50: > 20 µM
[5]; fibrin-induced microglia activation, dose response, read-out: Fibrin IC50 (uM) (Suppl. Table 7)
  IC50: > 20 µM
[5]; primary microglia HTS, fibrin stimulation, increased cell size (>800 μm^2) as marker of activation
  Fibrin % inhibition: 61%

## Oxolamine Citrate
[2]
  Quadrant (FIG. 5b): Q4
[4]
  LPS % inhibition: 10%
[5]
  Fibrin % inhibition: −1%

## Spiramycin
[2]; [13]
  Quadrant (FIG. 5b): Q4
[4]
  LPS % inhibition: 14%
[5]; primary microglia HTS, fibrin stimulation, cell size >800 μm2 as marker of activation
  Fibrin % inhibition: 17%

## neomycin sulfate
[2]
  Activity: fib/LPS
[4]
  LPS specificity: 0.5
[5]
  fib specificity: 2.2
  fib_HS: −0.75
[5]; read-out: fib_IC50
  IC50: 2.3 µM

## podophyllotoxin acetate
[2]; Table 7, fib = fibrin, LPS, tox = toxicity
  Activity: fib/LPS
[4]; Hill slope of LPS dose response, Table 7
  LPS_HS: −0.87
[4]; Table 7
  LPS specificity: 1.8
[4]; Table 7, read-out: LPS_IC50
  IC50: 0.012 µM
[5]; Hill slope of fibrin dose response, Table 7
  fib_HS: −1.10
[5]; Table 7
  fib specificity: 0.5
